This is an account of results in ChEMBL document CHEMBL1132276, “Development of predictive retention-activity relationship models of tricyclic antidepressants by micellar liquid chromatography” (J Med Chem, 1999).

Data set [1] in a line: Protonation constant of the compound. Type of data set: ADME.
The nature of data set [2]: physchem. As to conditions: octanol/water.
Data set [3] can be described thus: physchem. As to conditions: buffer, pH 7.4.
Description: log P values determined at pH 7.4
The nature of data set [4]: log k (capacity factor) was measured by micellar liquid chromatography in Brij35 medium. As to conditions: 0.04 M Brij35.
A short description of data set [5]: Partition coefficient (logP). Type of data set: physicochemical. To be noted: octanol/water.
Data set [6] is described as follows: log P value at pH 7.4. Type of data set: physicochemical. To be noted: buffer.
Data set [7] in a line: Protonation constant by using Brij35 as a medium. Type of data set: ADME.
The target in data set [8] is Serotonin (5-HT) receptor. The data set can be described thus: Compound was tested for its inhibitory activity against 5-hydroxytryptamine receptor. Type of data set: protein assay, Rattus norvegicus.
A short description of data set [9]: Half life period is estimated. Type of data set: ADME.
Data set [10] is described as follows: Volume of distribution in the plasma fluid was determined. Type of data set: ADME, organism-based.
Data set [11] is described as follows: Therapeutic plasma levels for the compound was evaluated. Type of data set: ADME, cell-free.
Data set [12] addresses T1, Alpha-1A adrenergic receptor (Rattus norvegicus, UniProt P43140).
T1 sequence (P43140 whole entry): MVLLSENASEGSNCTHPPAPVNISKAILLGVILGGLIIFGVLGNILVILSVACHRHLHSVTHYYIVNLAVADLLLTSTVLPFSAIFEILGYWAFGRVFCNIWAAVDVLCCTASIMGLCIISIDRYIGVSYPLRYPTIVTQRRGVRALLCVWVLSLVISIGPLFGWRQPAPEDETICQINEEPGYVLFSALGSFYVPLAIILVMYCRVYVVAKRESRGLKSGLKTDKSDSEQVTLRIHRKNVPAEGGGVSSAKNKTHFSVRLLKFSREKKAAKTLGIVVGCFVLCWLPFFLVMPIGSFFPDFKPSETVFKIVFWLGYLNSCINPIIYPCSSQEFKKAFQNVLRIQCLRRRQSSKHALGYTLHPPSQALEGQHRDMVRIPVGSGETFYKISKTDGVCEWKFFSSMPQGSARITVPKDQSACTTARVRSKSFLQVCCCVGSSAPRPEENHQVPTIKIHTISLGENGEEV
In words: Compound was tested for its inhibitory activity against Alpha-1 adrenergic receptor.

Data set [13] is described as follows: Compound was tested for its binding affinity towards brain (Hippocampus) Adenylate cyclase. Details: species or system Cavia porcellus.
The nature of data set [14]: Compound was tested for its binding affinity towards brain (neocortex) Adenylate cyclase. Details: species or system Cavia porcellus.
The target in data set [15] is Histamine H1 receptor (Rattus norvegicus, UniProt P31390). The data set can be described thus: Compound tested for its inhibitory activity against Histamine H1 receptor.
Data set [16] has as its target Histamine H2 receptor (Cavia porcellus, UniProt P47747). The data set can be described thus: Inhibitory activity against brain adenylate cyclase Histamine H2 receptor. Type of data set: functional.
A short description of data set [17]: Compound was tested for its inhibitory activity against Noradrenaline receptor. The arrangement: species or system Rattus norvegicus.
A short description of data set [18]: in vivo. To be noted: plasma.
Description: Plasma clearance for the compound was determined.
The conditions of data set [19]: buffer, pH 7.4.
Description: log P values determined at pH 7.4
For data set [20] the following is noted: octanol/water.

Histamine H1 receptor, sequence (P31390 whole entry): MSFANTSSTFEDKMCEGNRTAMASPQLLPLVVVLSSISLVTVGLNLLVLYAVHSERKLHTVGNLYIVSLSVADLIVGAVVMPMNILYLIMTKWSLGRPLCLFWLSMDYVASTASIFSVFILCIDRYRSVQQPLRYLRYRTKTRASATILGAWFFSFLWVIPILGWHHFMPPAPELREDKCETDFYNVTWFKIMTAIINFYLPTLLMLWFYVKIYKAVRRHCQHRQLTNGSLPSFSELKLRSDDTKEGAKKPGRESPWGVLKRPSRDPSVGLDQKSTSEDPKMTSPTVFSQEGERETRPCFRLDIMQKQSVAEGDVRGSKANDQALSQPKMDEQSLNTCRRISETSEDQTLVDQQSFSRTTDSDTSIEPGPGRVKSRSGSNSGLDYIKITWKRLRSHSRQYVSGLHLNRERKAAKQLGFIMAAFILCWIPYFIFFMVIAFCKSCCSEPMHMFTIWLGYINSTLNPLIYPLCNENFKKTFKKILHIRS
Histamine H2 receptor, sequence (P47747 whole entry): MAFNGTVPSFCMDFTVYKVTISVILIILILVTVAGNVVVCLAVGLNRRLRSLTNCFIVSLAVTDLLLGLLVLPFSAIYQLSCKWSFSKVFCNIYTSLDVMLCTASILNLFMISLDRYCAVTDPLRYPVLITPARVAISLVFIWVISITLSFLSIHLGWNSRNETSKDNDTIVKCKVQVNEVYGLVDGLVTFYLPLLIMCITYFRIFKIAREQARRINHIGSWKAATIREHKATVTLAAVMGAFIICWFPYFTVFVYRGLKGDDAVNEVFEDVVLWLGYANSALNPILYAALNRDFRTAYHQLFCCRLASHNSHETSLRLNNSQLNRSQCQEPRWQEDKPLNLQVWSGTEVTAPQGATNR

Consider `CN(C)CCC=C1c2ccccc2C(C)(C)c2ccccc21`, for which, in data set [1], the pKa came out at 7.38. For the same molecule, in data set [2], the logP was 5.12. The molecule further gave a log distribution coefficient (logD) in data set [3] of 4.83. For the same molecule, in data set [4], the “Log K” value stood at 1.97.
With `O=C(O)CCCCCCNC1c2ccccc2CCc2ccccc21` [AMINEPTINE], the logP in data set [5] is 2.44. This molecule displayed a log distribution coefficient (logD) in data set [6] of 2.26. The pKa in data set [7] was determined as 5.24. In [4], the “Log K” value turned out to be 1.09.
`CN(C)CCC=C1c2ccccc2CCc2ccccc21` [AMITRIPTYLINE]: the IC50 in data set [8] worked out at 0.044 µM; in data set [12] it was 0.02 µM; in data set [15], 0.02 µM; in data set [16], 0.66 µM; in data set [17], 0.041 µM. Moreover, the half-life in data set [9] is 27.5 h. In data set [10], this molecule registered a Vd of 15 L/kg. In [11], this molecule had a T.P.L of 180 ng/mL. Besides, the pKa in data set [1] is 9.42. The Ki was 0.053 µM in data set [13] and 0.06 µM in data set [14]. Also, in data set [18], the clearance was 1200 mL/min. In data set [2], this molecule came in with a logP of 4.64. Also, the pH-dependent lipophilicity (logD) in data set [3] worked out at 2.62. Also, the “Log K” value in [4] worked out at 1.84.
`Clc1ccc2c(c1)C(N1CCNCC1)=Nc1ccccc1O2` [AMOXAPINE]: in [1], the pKa came out at 7.6. In data set [19], this molecule gave a logD of 3.48. Moreover, the logP in [2] worked out at 3.89. Also, the “Log K” value in data set [4] is given as 1.63.
For the molecule `CN(C)CCCN1c2ccccc2CCc2ccc(Cl)cc21` [CLOMIPRAMINE], in data set [10], the Vd stood at 13.5 L/kg. For the same molecule, the T.P.L in data set [11] was determined as 90 ng/mL. In data set [1], this molecule yielded a pKa of 9.38. Further, the Ki amounted to 0.055 µM in data set [13] and 0.043 µM in data set [14]. In addition, the results for the IC50 in data set [16] and in data set [17] were 0.72 µM and 0.046 µM, respectively. In data set [20], the logP was determined as 5.19. Besides, the clearance in [18] is 1210 mL/min. Moreover, in data set [3], the logD stood at 3.32. For the same molecule, in data set [4], the “Log K” value came to 1.89.
On to `CNCCCN1c2ccccc2CCc2ccccc21` [DESIPRAMINE], for which the half-life in data set [9] was 37.5 h. The molecule further had a Vd in [10] of 22 L/kg. The same molecule returned a T.P.L in data set [11] of 212.5 ng/mL. Further, the Ki in [13] came to 0.35 µM; in data set [14], 0.32 µM. Moreover, the figures for the IC50 in data set [16] and in data set [17] were 3.8 µM and 0.002 µM, respectively. Also, the “Log K” value in data set [4] was 1.46.
In [1], `CN(C)CCC=C1c2ccccc2CSc2ccccc21` [DOTHIEPIN] displayed a pKa of 9.25. Moreover, in data set [2], the logP is 4.52. Moreover, in data set [3], the log distribution coefficient (logD) was determined as 2.66. Further, in [4], the “Log K” value turned out to be 1.74.
As for `CN(C)CC/C=C1/c2ccccc2COc2ccccc21` [DOXEPIN], the half-life in data set [9] is 16.5 h. Also, in [1], the pKa is 9. In addition, the IC50 in data set [12] came to 0.01 µM; in [16], 1.6 µM; in data set [17], 0.065 µM. In addition, the Ki in data set [13] was 0.17 µM; in [14], 0.19 µM. Besides, the clearance in data set [18] is 850 mL/min. Further, the lipophilicity (logP) in data set [2] came out at 3.88. Besides, the logD in [3] is 2.27. In addition, in [4], the “Log K” value was 1.69.
Molecule `CN(C)CCCN1c2ccccc2CCc2ccccc21` [IMIPRAMINE] registered a Vd in data set [10] of 30 L/kg. The molecule further registered a T.P.L in data set [11] of 275 ng/mL. Further, the inhibition constant Ki in data set [13] and in data set [14] was 0.16 µM each time. For the same molecule, the IC50 in data set [15] came to 0.06 µM; in data set [16], 1.9 µM; in data set [17] it was 0.046 µM. In addition, the “Log K” value in [4] came out at 1.8.
As for `CN1CCN(C2=Nc3ccccc3Oc3ccc(Cl)cc32)CC1` [LOXAPINE], the pKa in data set [1] amounted to 6.6. Besides, the “Log K” value in data set [4] was found to be 1.86.
Consider `CNCCCC12CCC(c3ccccc31)c1ccccc12` [MAPROTILINE], for which the pKa in [1] was 10.5. Further, the logP in data set [2] stood at 4.22. For the same molecule, the logD in [3] was determined as 1.12. In addition, the “Log K” value in data set [4] stood at 1.47.
With `CN1CCN2c3ccccc3Cc3ccccc3C2C1` (stereo not given) [MIANSERIN], the half-life in data set [9] was 25 h. Further, the Vd in data set [10] was 16 L/kg. The molecule also yielded a pKa in data set [1] of 7.1. The figures for the Ki in data set [13] and in data set [14] were 0.065 µM and 0.071 µM, respectively. The molecule further gave an IC50 in [16] of 0.88 µM. Besides, in [2], the logP came out at 4.26. In [3], this molecule registered a logD of 4.08. Moreover, the “Log K” value in [4] came out at 1.87.
In the case of `CNCCC=C1c2ccccc2CCc2ccccc21` [NORTRIPTYLINE], the half-life in data set [9] was 35.5 h. The same molecule had a volume of distribution (Vd) in [10] of 35 L/kg. Further, the pKa in [1] came to 9.7. In addition, the IC50 is 0.04 µM in [12], 0.05 µM in data set [15], 7 µM in [16] and 0.009 µM in [17]. Also, the Ki turned out to be 0.45 µM in [13] and 0.28 µM in data set [14]. Further, the clearance in [18] was 1320 mL/min. The logP in data set [2] came out at 4.32. The logD in data set [3] came to 2.02. The “Log K” value in data set [4] was found to be 1.52.
On to `c1ccc2c(c1)CCc1ccccc1N2C1CN2CCC1CC2` (stereo not given) [QUINUPRAMINE], for which the pKa in [7] was 7.85. This molecule yielded a logP in data set [2] of 4.94. The same molecule had a logD in [3] of 1.36. Besides, the “Log K” value in data set [4] was found to be 1.62.
In turn, `CC(CN(C)C)CN1c2ccccc2CCc2ccccc21` (stereo not given) [TRIMIPRAMINE] yielded a pKa in [7] of 6.77. The logD in data set [19] is on record as 4.64. Also, the logP in data set [2] came out at 4.73. In [4], the “Log K” value turned out to be 1.86.

A word on the pKa: it is the pH at which an ionisable group is half protonated. A word on the logP: it is a log measure of how a compound divides between an organic and an aqueous phase. High values mean higher lipophilicity, low ones lower lipophilicity. A word on the logD: it is the decadic logarithm of the distribution of all forms, ionised or not, between an organic phase and buffer at a given pH. Usually IC50 stands for the midpoint of a concentration-inhibition curve. Broadly, the half-life is the time needed for the level to fall by half in the phase considered. What is called Vd is a proportionality between amount in the body and measured concentration, not a real space. A higher Vd goes with wide distribution into tissue. A word on the Ki: it is a dissociation constant, usually derived from enzyme kinetics or from competition with a known ligand. As usually defined, the clearance is the volume of plasma or blood freed of the substance per unit of time. Higher therefore signals a high capacity for elimination.
